Experimental data published in patent publication US9073821B2, “Hydroxamic acid derivative” (priority 2010, dated 2015).
pIC50: −log10 of the molar value. In brackets after ≈: the same amount, converted by molar mass. Read-outs that look alike come from different tables or passages of the source.

Experiments:
E. coli LpxC enzyme = E. coli LpxC enzyme (Escherichia coli (strain K12), UniProt P0A725); test: Inhibitory activity on E. coli LpxC enzyme (fluorescamine assay); assay type: biochemical; settings: Table 4
Sequence of E. coli LpxC enzyme (P0A725 whole entry): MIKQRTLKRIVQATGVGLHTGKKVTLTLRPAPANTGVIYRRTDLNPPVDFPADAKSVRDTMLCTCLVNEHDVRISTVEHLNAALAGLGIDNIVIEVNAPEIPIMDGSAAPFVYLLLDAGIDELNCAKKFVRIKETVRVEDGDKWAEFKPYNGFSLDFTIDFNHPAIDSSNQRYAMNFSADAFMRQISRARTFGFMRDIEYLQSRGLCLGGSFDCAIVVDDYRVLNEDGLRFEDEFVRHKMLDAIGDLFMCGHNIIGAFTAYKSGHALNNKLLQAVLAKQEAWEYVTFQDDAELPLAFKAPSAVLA
Procedure: Test 2: Evaluation of the Inhibitory Activity on E. coli LpxC Enzyme
An inhibition curve was constructed for each test compound by performing the aforementioned reaction at varying concentrations of the test compound. From this inhibition curve, the concentration of the test compound at which the formation of the reaction product was suppressed by 50% was determined as the IC50 of the test compound, which was an index for the inhibitory activity on E. coli LpxC enzyme.

[1] = target: Pseudomonas aeruginosa LpxC enzyme (Pseudomonas aeruginosa (strain ATCC 15692 / DSM 22644 / CIP 104116 / JCM 14847 / LMG 12228 / 1C / PRS 101 / PAO1), UniProt P47205); test: biochemical; assay type: biochemical
E. coli strain ATCC25922 = test: Antimicrobial activity, MIC by broth microdilution; assay type: cell-based; settings: Escherichia coli, Table 4, 35° C., 18 hours, read-out: E. coli ATCC 25922 strain MIC
[2] = test system: Klebsiella pneumoniae strain ATCC13883; test: Antimicrobial activity, MIC by broth microdilution; assay type: cell-based; settings: Table 4, 35° C., 18 hours, read-out: Klebsiella pneumoniae ATCC 13883 strain MIC
[3] = test system: Pseudomonas aeruginosa strain TS88 (clinical isolate); test: Antimicrobial activity, MIC by broth microdilution; assay type: cell-based; settings: Table 4, 35° C., 18 hours, read-out: Pseudomonas aeruginosa TS88 strain MIC
[4] = Table 4, read-out: Pseudomonas aeruginosa LpxC IC50
[5] = inhibitory activity on Pseudomonas aeruginosa LpxC enzyme, class symbols A/B/C, read-out: Enzyme inhibitory activity

Work on CNC(=O)C(C(=O)NO)N(C)C(=O)c1ccc(C#Cc2ccc(CN3CCCOCC3)cc2)cc1 (stereo not drawn) [Compound 168, N-hydroxy-N′-methyl-2-[methyl(4-{[4-(1,4-oxazepan-4-ylmethyl)phenyl]ethynyl}benzoyl)amino]propanediamide] yielded a pIC50 (E. coli LpxC enzyme) of 6.92, a pIC50 [1, 4] of 8.38 and a pIC50 [1, 5] of over 8.00. It also gave an MIC (E. coli strain ATCC25922) of 0.5 µg/mL (≈ 1.04 µM), an MIC [2] of 2 µg/mL (≈ 4.18 µM) and an MIC [3] of 0.5 µg/mL (≈ 1.04 µM).

With CNC(=O)[C@@](C)(C(=O)NO)N(C)C(=O)c1ccc(C#Cc2coc(COC)c2)cc1 [Compound 550, (2S)-N-hydroxy-2-{[(4-{[5-(methoxymethyl)furan-3-yl]ethynyl}phenyl)carbonyl](methyl)amino}-N′,2-dimethylpropanediamide] the pIC50 (E. coli LpxC enzyme) was 7.92, the pIC50 [1] was over 8.00 and the pIC50 [1, 4] was 8.80. For the same molecule, the MIC (E. coli strain ATCC25922) was 0.25 µg/mL (≈ 0.605 µM), the MIC [2] was 1 µg/mL (≈ 2.42 µM) and the MIC [3] was 0.5 µg/mL (≈ 1.21 µM).

Work on CNC(=O)C(C(=O)NO)N(C)C(=O)c1ccc(C#Cc2ccc(CNC3CC3)cc2)cc1 (stereo not drawn) [Compound 301, 2-[{[4-({4-[(Cyclopropylamino)methyl]phenyl}ethynyl)phenyl]carbonyl}(methyl)amino]-n-hydroxy-n′-methylpropanediamide] yielded a pIC50 (E. coli LpxC enzyme) of 7.00, a pIC50 [1, 4] of 8.21 and a pIC50 [1, 5] of over 8.00. The MIC (E. coli strain ATCC25922) was 1 µg/mL (≈ 2.3 µM), the MIC [2] was 4 µg/mL (≈ 9.21 µM) and the MIC [3] was 1 µg/mL (≈ 2.3 µM).
